Laboratory results as given in ChEMBL document CHEMBL3351937, “Potential C-terminal-domain inhibitors of heat shock protein 90 derived from a C-terminal peptide helix” (Bioorg Med Chem, 2014).
pIC50: −log10 of the molar value. Activity calls are given as the source filed them. No cut-off for these calls is given here. Bridge positions count the residues as written; N and C are the ends. Square brackets hold non-standard residues; d marks the D form. Peptide text beside a SMILES is read from it. * marks the point of attachment. 5FAM = O=C1OC2(c3ccc(O)cc3Oc3cc(O)ccc32)c2ccc(C(=O)*)cc21; S5 = C=CCCC[C@](C)(N)C(=O)O

Key:
[1] = biological target: T1, Heat shock protein HSP 90-beta (Homo sapiens, UniProt P08238); experiment: Binding affinity to human HSP90 using FITC-labeled compound at 1 nM by fluorescence polarization assay
T1 sequence (P08238 whole entry): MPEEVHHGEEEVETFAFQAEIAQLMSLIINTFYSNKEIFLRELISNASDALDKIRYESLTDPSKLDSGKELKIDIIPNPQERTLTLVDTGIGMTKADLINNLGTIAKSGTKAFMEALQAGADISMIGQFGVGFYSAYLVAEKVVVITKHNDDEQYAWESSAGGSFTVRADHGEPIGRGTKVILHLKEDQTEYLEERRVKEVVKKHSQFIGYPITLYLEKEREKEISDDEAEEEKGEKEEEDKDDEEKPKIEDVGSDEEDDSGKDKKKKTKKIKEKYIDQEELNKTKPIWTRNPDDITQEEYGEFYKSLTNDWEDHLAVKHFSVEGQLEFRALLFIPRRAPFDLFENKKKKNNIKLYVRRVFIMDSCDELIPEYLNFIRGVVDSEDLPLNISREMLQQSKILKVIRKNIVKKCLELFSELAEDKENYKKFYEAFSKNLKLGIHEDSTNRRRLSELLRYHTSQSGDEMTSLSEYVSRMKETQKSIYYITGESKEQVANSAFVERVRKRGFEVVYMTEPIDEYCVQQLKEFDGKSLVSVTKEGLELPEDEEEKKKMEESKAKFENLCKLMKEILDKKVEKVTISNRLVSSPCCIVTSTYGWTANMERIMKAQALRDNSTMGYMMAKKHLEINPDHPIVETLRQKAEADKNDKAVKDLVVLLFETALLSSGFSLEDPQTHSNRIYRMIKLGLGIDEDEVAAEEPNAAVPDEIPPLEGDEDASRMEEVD

[2] = biological target: T1, Heat shock protein HSP 90-beta; experiment: Binding affinity to human HSP90 using FAM-labeled compound by fluorescence polarization assay
[3] = biological target: T2, Heat shock protein HSP 90 (Oryctolagus cuniculus, UniProt P11500); experiment: Inhibition of HSP90 in rabbit reticulocyte lysate after 90 mins by luciferase renaturation assay
T2 sequence (P11500 whole entry): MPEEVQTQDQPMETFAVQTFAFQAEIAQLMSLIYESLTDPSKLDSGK

[4] = biological target: T1, Heat shock protein HSP 90-beta; experiment: Inhibition of HSP90 in human MDA-kb2 cells assessed as reduction in glucocorticoid receptor-dependent luciferase expression after 18 hrs by firefly luciferase reporter gene assay; assay type: cell-based
[5] = Cytotoxicity against human MDA-kb2 cells assessed as reduction in cell viability after 18 hrs by Promega cell titer-Glo assay; assay type: functional; conditions: MDA-kb2, 18 h, read-out: LC50 (the source's name)
[6] = Solubility in phosphate buffer; assay type: physicochemical
MDA-kb2 = experiment: Induction of plasma membrane disruption in human MDA-kb2 cells; assay type: functional, cell-based
[7] = biological target: T3, Heat shock protein HSP 90 (Oryctolagus cuniculus) (UniProt P11500); experiment: Inhibition of HSP90 in rabbit reticulocyte lysate at 250 uM after 90 mins by luciferase renaturation assay
T3 sequence (whole entry): T2 sequence (P11500 whole entry)

For `CO[C@H]1/C=C\C=C(/C)C(=O)NC2=CC(=O)C(NCCCCCCNC(=S)Nc3ccc(-c4c5ccc(=O)cc-5oc5cc(O)ccc45)c(C(=O)O)c3)=C(C[C@@H](C)C[C@H](OC)[C@H](O)[C@@H](C)/C=C(\C)[C@@H]1OC(N)=O)C2=O`, the Activity [1] was “Active”.
In the case of `CC[C@H](C)[C@H](NC(=O)[C@H](CCCNC(=N)N)NC(=O)[C@H](CC(N)=O)NC(=O)[C@H](C)NC(=O)[C@H](Cc1cnc[nH]1)NC(=O)[C@@H](NC(=O)[C@H](CCC(N)=O)NC(=O)[C@@H]1CCCN1C(=O)[C@H](CC(=O)O)NC(=O)c1ccc2c(c1)C(=O)OC21c2ccc(O)cc2Oc2cc(O)ccc21)[C@@H](C)O)C(=O)N[C@@H](Cc1c[nH]c2ccccc12)C(=O)N[C@@H](CCCNC(=N)N)C(=O)N[C@@H](CCSC)C(=O)N[C@H](C(=O)N[C@@H](CCCCN)C(=O)N[C@@H](CC(C)C)C(=O)N[C@@H](Cc1c[nH]c2ccccc12)C(=O)N[C@@H](CC(C)C)C(=O)N[C@@H](CC(=O)O)C(N)=O)[C@@H](C)CC` (5FAM-DPQTHANRIWRMIKLWLD-NH2), the Activity [2] was “inactive”.
In the case of `CC[C@H](C)[C@H](NC(=O)[C@H](CCCNC(=N)N)NC(=O)[C@H](CC(N)=O)NC(=O)[C@H](C)NC(=O)[C@H](Cc1cnc[nH]1)NC(=O)[C@@H](NC(=O)[C@H](CCC(N)=O)NC(=O)[C@@H]1CCCN1C(=O)[C@H](CC(=O)O)NC(C)=O)[C@@H](C)O)C(=O)N[C@@H](Cc1c[nH]c2ccccc12)C(=O)N[C@@H](CCCNC(=N)N)C(=O)N[C@@H](CCSC)C(=O)N[C@H](C(=O)N[C@H]1CCCCNC(=O)C[C@@H](C(N)=O)NC(=O)[C@H](CC(C)C)NC(=O)[C@H](Cc2c[nH]c3ccccc23)NC(=O)[C@H](CC(C)C)NC1=O)[C@@H](C)CC` (Ac-DPQTHANRIWRMIKLWLD-NH2; lactam 14-18), the pIC50 [3] was 5.39, the pIC50 [4] was 6.14 and the CC50 [5] was 1.86 µM. The solubility [6] was at least 100 µM and the Activity (MDA-kb2) was “Active”.
For `CC[C@H](C)[C@H](NC(=O)[C@H](CCCNC(=N)N)NC(=O)[C@H](CC(N)=O)NC(=O)[C@H](C)NC(=O)[C@H](Cc1cnc[nH]1)NC(=O)[C@@H](NC(=O)[C@H](CCC(N)=O)NC(=O)[C@@H]1CCCN1C(=O)[C@H](CC(=O)O)NC(C)=O)[C@@H](C)O)C(=O)N[C@@H](Cc1ccc(O)cc1)C(=O)N[C@@H](CCCNC(=N)N)C(=O)N[C@H]1CCCCNC(=O)C[C@@H](C(=O)N[C@@H](CC(C)C)C(=O)NCC(N)=O)NC(=O)[C@H](CC(C)C)NC(=O)[C@H](CCCCN)NC(=O)[C@H]([C@@H](C)CC)NC1=O` (Ac-DPQTHANRIYRKIKLDLG-NH2; lactam 12-16), the pIC50 [3] was 3.86, the pIC50 [4] was under 4.17 and the CC50 [5] was over 67 µM. The solubility [6] was at least 100 µM.
`CC[C@H](C)[C@H](NC(=O)[C@H](CCCNC(=N)N)NC(=O)[C@H](CC(N)=O)NC(=O)[C@H](C)NC(=O)[C@H](Cc1cnc[nH]1)NC(=O)[C@@H](NC(=O)[C@H](CCC(N)=O)NC(=O)[C@@H]1CCCN1C(=O)[C@H](CC(=O)O)NC(C)=O)[C@@H](C)O)C(=O)N[C@@H](Cc1ccc(O)cc1)C(=O)N[C@@H](CCCNC(=N)N)C(=O)N[C@@H](CCSC)C(=O)N[C@H](C(=O)N[C@H]1CCCCNC(=O)C[C@@H](C(=O)O)NC(=O)[C@H](CC(C)C)NC(=O)CNC(=O)[C@H](CC(C)C)NC1=O)[C@@H](C)CC` (Ac-DPQTHANRIYRMIKLGLD-OH; lactam 14-18) gave a pIC50 [3] of 4.43, a pIC50 [4] of 3.92 and a CC50 [5] of 97 µM. It also gave a solubility [6] of at least 100 µM.
With `CC[C@H](C)[C@H](NC(=O)[C@H](CCCNC(=N)N)NC(=O)[C@H](CC(N)=O)NC(=O)[C@H](C)NC(=O)[C@H](Cc1cnc[nH]1)NC(=O)[C@@H](NC(=O)[C@H](CCC(N)=O)NC(=O)[C@@H]1CCCN1C(=O)[C@H](CC(=O)O)NC(C)=O)[C@@H](C)O)C(=O)N[C@@H](Cc1ccc(O)cc1)C(=O)N[C@@H](CCCNC(=N)N)C(=O)N[C@@H](CCSC)C(=O)N[C@H](C(=O)N[C@H]1CCCCNC(=O)C[C@@H](C(N)=O)NC(=O)[C@H](CC(C)C)NC(=O)[C@H](Cc2c[nH]c3ccccc23)NC(=O)[C@H](CC(C)C)NC1=O)[C@@H](C)CC` (Ac-DPQTHANRIYRMIKLWLD-NH2; lactam 14-18) the pIC50 [3] was 5.07, the pIC50 [4] was under 4.57 and the CC50 [5] was over 27 µM. For the same compound, the solubility [6] was at least 100 µM.
Work on `C=CCCC[C@](C)(NC(=O)[C@H](CC(C)C)NC(=O)[C@H](CCCCN)NC(=O)[C@@H](NC(=O)[C@](C)(CCCC=C)NC(=O)[C@H](CCCNC(=N)N)NC(=O)[C@H](Cc1ccc(O)cc1)NC(=O)[C@@H](NC(=O)[C@H](CCCNC(=N)N)NC(=O)[C@H](CC(N)=O)NC(=O)[C@H](C)NC(=O)[C@H](Cc1cnc[nH]1)NC(=O)[C@@H](NC(=O)[C@H](CCC(N)=O)NC(=O)[C@@H]1CCCN1C(=O)[C@H](CC(=O)O)NC(C)=O)[C@@H](C)O)[C@@H](C)CC)[C@@H](C)CC)C(=O)N[C@@H](CC(C)C)C(=O)NCC(N)=O` (Ac-DPQTHANRIYR[S5]IKL[S5]LG-NH2) yielded a CC50 [5] of 19.1 µM and a solubility [6] of at least 100 µM.
Compound `CC[C@H](C)[C@H](NC(=O)[C@H](CCCNC(=N)N)NC(=O)[C@H](CC(N)=O)NC(=O)[C@H](C)NC(=O)[C@H](Cc1cnc[nH]1)NC(=O)[C@@H](NC(=O)[C@H](CCC(N)=O)NC(=O)[C@@H]1CCCN1C(=O)[C@H](CC(=O)O)NC(C)=O)[C@@H](C)O)C(=O)N[C@@H](Cc1ccc(O)cc1)C(=O)N[C@@H](CCCNC(=N)N)C(=O)N[C@@]1(C)CCC/C=C/CCC[C@@](C)(C(=O)N[C@@H](CC(C)C)C(=O)NCC(N)=O)NC(=O)[C@H](CC(C)C)NC(=O)[C@H](CCCCN)NC(=O)[C@H]([C@@H](C)CC)NC1=O` (Ac-DPQTHANRIYR[S5]IKL[S5]LG-NH2; staple (E) 12-16) has a pIC50 [3] of 4.42, a pIC50 [4] of 4.73 and a CC50 [5] of 26.6 µM. For the same compound, the solubility [6] was at least 100 µM.
Work on `CSCC[C@@H]1NC(=O)[C@H](CCCNC(=N)N)NC(=O)[C@H](Cc2ccc(O)cc2)NC(=O)[C@@H](NC(=O)[C@H](CCCNC(=N)N)NC(=O)[C@H](CC(N)=O)NC(=O)[C@H](C)NC(=O)[C@H](Cc2cnc[nH]2)NC(=O)[C@@H](NC(=O)[C@H](CCC(N)=O)NC(=O)[C@@H]2CCCN2C(=O)[C@H](CC(=O)O)NC(C)=O)[C@@H](C)O)CCCCNC(=O)C[C@@H](C(=O)N[C@@H](CCCCN)C(=O)N[C@@H](CC(C)C)C(=O)NCC(=O)N[C@@H](CC(C)C)C(=O)NCC(N)=O)NC1=O` (Ac-DPQTHANRKYRMDKLGLG-NH2; lactam 9-13) yielded a pIC50 [3] of 3.77, a pIC50 [4] of under 3.92 and a CC50 [5] of over 120 µM. It also gave a solubility [6] of at least 100 µM.
For `CO[C@H]1[C@H](OC(=O)c2ccc(C)[nH]2)[C@H](O)[C@@H](Oc2ccc3c(O)c(NC(=O)c4c[nH]c(C(=O)Nc5c(O)c6ccc(O[C@H]7OC(C)(C)[C@@H](OC)[C@H](OC(=O)c8ccc(C)[nH]8)[C@@H]7O)c(C)c6oc5=O)c4C)c(=O)oc3c2C)OC1(C)C` [COUMERMYCIN A1], the pIC50 [3] was 4.55, the pIC50 [4] was 4.82 and the CC50 [5] was 19.1 µM.
In the case of `COC1=C2C[C@@H](C)C[C@H](OC)[C@H](O)[C@@H](C)/C=C(\C)[C@H](OC(N)=O)[C@@H](OC)/C=C\C=C(/C)C(=O)NC(=CC1=O)C2=O` [GELDANAMYCIN], the CC50 [5] was over 2 µM.
For `CO[C@@H]1[C@@H](OC(N)=O)[C@@H](O)[C@H](Oc2ccc3c(O)c(NC(=O)c4ccc(O)c(CC=C(C)C)c4)c(=O)oc3c2C)OC1(C)C` [NOVOBIOCIN], the inhibition [7] was “Active” and the CC50 [5] was 690 µM.
For Ac-DPFTHANRIYRMIKLGLG-NH2, the inhibition [7] was “Active”.
In the case of Ac-DPQTFANRIYRMIKLGLG-NH2, the inhibition [7] was “Active”.
With Ac-DPQTHANRIWRMIKLGLG-NH2 the inhibition [7] was “Active”.
In the case of Ac-DPQTHANRIYRLIKLGLG-NH2, the inhibition [7] was “Active”.
With Ac-DPQTHANRIYRMIKLGLG-NH2 the inhibition [7] was “Active”, the pIC50 [3] was 3.63 and the pIC50 [4] was under 3.80. The CC50 [5] was over 160 µM and the solubility [6] was at least 100 µM.
With Ac-DPQTHANRIYRMIKLGNG-NH2 the inhibition [7] was “Active”.
With Ac-DPQTHANRIYRMIKLLLG-NH2 the inhibition [7] was “Active”, the pIC50 [4] was 4.73 and the CC50 [5] was 22.9 µM. The solubility [6] was at least 100 µM.
For Ac-DPQTHANRIYRMIKLWLG-NH2, the CC50 [5] was 18.9 µM, the solubility [6] was at least 100 µM and the Activity (MDA-kb2) was “Active”.
With Ac-FQAEIAQLMSLIINTFY-NH2 the inhibition [7] was “inactive”.
